System: 855422-203-R-J1-PDC complex spheroid viability
Experiment: Anticancer human tumor 855422-203-R-J1-PDC patient-derived bladder carcinoma cell line growth inhibition [POLQ]
Details: for IC50: curve of first compound; for viability, T/C: stronger effect = lower value
Description: Multicellular complex tumor spheroid response to Polymerase (POL) inhibitors (novobiocin, ART-558, RP6685) in combination with a variety of drugs and investigational agents in selected tumor cell lines
The POL inhibitors (novobiocin, ART-558, and RP6685) were evaluated both individually and in combination with standard of care and investigational anticancer small molecules within a complex spheroid model of solid tumors. . Complex spheroids include a stromal component modeled by human endothelial cells (HUVEC) and fibroblasts modeled by human mesenchymal stem cells (MSCs). The concentration ranges selected for each drug and investigational agent were based upon clinically achievable concentrations if the clinical Cmax of the agent was known.
Compounds. The drugs and investigational agents: novobiocin (NSC847541), ART-558 (NSC835418), RP-6685 (NSC848927), peposertib (NSC802822), ceralasertib (NSC780249), elimusertib (NSC800525), camonsertib (NSC841442), AZD-1390 (NSC803789), olaparib (NSC753686), talazoparib (NSC767125), rucaparib (NSC756644), sotorasib (NSC818433), MRTX-1133 (NSC836407), SN-38 (NSC673596), topotecan (NSC609699), epotoside (NSC141540), doxorubicin (NSC123127), gemcitabine (NSC613327), 5-fluorouracil (NSC19893), paclitaxel (NSC125973), vemurafenib (NSC761431), MSA-2 (NSC828583), SN-011 (NSC837082), adavosertib (NSC754352), prexasertib (NSC758257), carboplatin (NSC241240) and oxaliplatin (NSC266046), were obtained from the National Cancer Institute (NCI) Developmental Therapeutics Program Chemical Repository (21). The FDA-approved anticancer drug set is available from the Developmental Therapeutics Program at https://dtp.cancer.gov/organization/dscb/obtaining/. […] The stock solutions were prepared in dimethyl sulfoxide (DMSO, Sigma-Aldrich, St. Louis, MO, cat. D2650), except for the platinum compounds which were prepared in saline (Quality Biological, Gaithersburg, MD, cat. 114-055-101), at 800-fold the tested concentration and stored at -70 degrees C prior to their use. All drugs and investigational agents were tested over a range starting from a high concentration at or near the clinical Cmax and decreasing in half-log increments. If the clinical Cmax for an agent had not been determined, the highest concentration tested was 10 microM, except for SN-38, which was tested at a high concentration of 1 microM.
Cell Culture. All cells were maintained in an incubator at 37 degrees C and 5% CO2 with 95% humidity. The PDC lines were cultured according to standard operating procedures established by the NCI PDMR (https://pdmr.cancer.gov). Table 3 of the manuscript, lists the cell lines along with the number of the three cell types plated to form the mct-spheroids and media for tumor cell growth. After thawing, all PDC lines, except 997537-175-T-J1-PDC and 415267-285-R-J2-PDC, were cultured in Matrigel-coated flasks prepared with a working solution of 1X Ham's F-12 nutrient mix, without supplementation (Thermo Fisher Scientific, cat. 11765054), 100 U/mL penicillin-streptomycin (Thermo Fisher Scientific, cat. 15140122), and 2.5% Matrigel (Corning Inc., Corning, NY, cat. 354248) for the first three passages. The two PDC lines 997537-175-T-J1-PDC and 415267-285-R-J2-PDC were cultured on uncoated flasks. The 857933-349-R-J2-PDC line was cultured in 6C/Colon 1B media containing advanced DMEM/F-12 (Thermo Fisher Scientific, cat. 12634028), 10 mM HEPES (Thermo Fisher Scientific, cat. 15630080), 1X GlutaMAX supplement (Thermo Fisher Scientific, cat. 35050061), 0.1 mg/mL primocin (InvivoGen, San Diego, CA, cat. ant-pm-2), 10% defined fetal bovine serum, heat inactivated (HyClone Laboratories Inc., Logan, UT, cat. SH30070.03HI), 50% L-WRN conditioned media (ATCC, cat. CRL-3276), 1.25 mM N-Acetyl-L-cysteine (Sigma-Aldrich, cat. A9165), 10 mM nicotinamide (Sigma-Aldrich, cat. N0636), 1X B-27 supplement (Thermo Fisher Scientific, cat. 17504044), 1X N-2 supplement (Thermo Fisher Scientific, cat. […]

[1] = second compound 0.0316 µM, first compound 0.0316 µM
[2] = second compound 0.0316 µM, first compound 0.1 µM
[3] = second compound 0.0316 µM, first compound 0.316 µM
[4] = second compound 0.0316 µM, first compound 1 µM
[5] = second compound 0.0316 µM, first compound 3.16 µM
[6] = second compound 0.0316 µM, first compound 10 µM
[7] = second compound 0.1 µM, first compound 0.0316 µM
[8] = second compound 0.1 µM, first compound 0.1 µM
[9] = second compound 0.1 µM, first compound 0.316 µM
[10] = second compound 0.1 µM, first compound 1 µM
[11] = second compound 0.1 µM, first compound 3.16 µM
[12] = second compound 0.1 µM, first compound 10 µM
[13] = second compound 0.316 µM, first compound 0.0316 µM
[14] = second compound 0.316 µM, first compound 0.1 µM
[15] = second compound 0.316 µM, first compound 0.316 µM
[16] = second compound 0.316 µM, first compound 1 µM
[17] = second compound 0.316 µM, first compound 3.16 µM
[18] = second compound 0.316 µM, first compound 10 µM
[19] = second compound 1 µM, first compound 0.0316 µM
[20] = second compound 1 µM, first compound 0.1 µM
[21] = second compound 1 µM, first compound 0.316 µM
[22] = second compound 1 µM, first compound 1 µM
[23] = second compound 1 µM, first compound 3.16 µM
[24] = second compound 1 µM, first compound 10 µM
[25] = second compound 3.16 µM, first compound 0.0316 µM
[26] = second compound 3.16 µM, first compound 0.1 µM
[27] = second compound 3.16 µM, first compound 0.316 µM
[28] = second compound 3.16 µM, first compound 1 µM
[29] = second compound 3.16 µM, first compound 3.16 µM
[30] = second compound 3.16 µM, first compound 10 µM
[31] = second compound 10 µM, first compound 0.0316 µM
[32] = second compound 10 µM, first compound 0.1 µM
[33] = second compound 10 µM, first compound 0.316 µM
[34] = second compound 10 µM, first compound 1 µM
[35] = second compound 10 µM, first compound 3.16 µM
[36] = second compound 10 µM, first compound 10 µM
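Further: spheroids exposed to compounds for seven days before readout.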

**Q.** With C=CC(=O)N1CCN(c2nc(=O)n(-c3c(C)ccnc3C(C)C)c3nc(-c4c(O)cccc4F)c(F)cc23)C(C)C1 (centres undefined) + COC1C(OC(N)=O)C(O)C(Oc2ccc3c(O)c(NC(=O)c4ccc(O)c(CC=C(C)C)c4)c(=O)oc3c2C)OC1(C)C as the compound, how does the IC50 (second compound 0.0316 µM) read?
**A.** Its IC50 is over 10000 nM.

**Q.** What about the IC50 (second compound 0.1 µM) of the same compound?
**A.** Its IC50 is over 10000 nM.

**Q.** What about the IC50 (second compound 0.316 µM) of the same compound?
**A.** The IC50 was over 10000 nM.

**Q.** What about the IC50 (second compound 1 µM) of the same compound?
**A.** The IC50 was over 10000 nM.

**Q.** And the IC50 (second compound 3.16 µM)?
**A.** The IC50 was over 10000 nM.

**Q.** And the IC50 (second compound 10 µM)?
**A.** The IC50 was over 10000 nM.

**Q.** And the viability, T/C [1]?
**A.** Its viability, T/C is 110%.

**Q.** What about the viability, T/C [2] of the same compound?
**A.** Its viability, T/C is 106%.

**Q.** What about the viability, T/C [3] of the same compound?
**A.** The viability, T/C was 106%.

**Q.** What about the viability, T/C [4] of the same compound?
**A.** The viability, T/C was 111%.

**Q.** What about the viability, T/C [5] of the same compound?
**A.** The viability, T/C was 123%.

**Q.** What about the viability, T/C [6] of the same compound?
**A.** Its viability, T/C is 120%.

**Q.** What about the viability, T/C [7] of the same compound?
**A.** The viability, T/C was 95%.

**Q.** And the viability, T/C [8]?
**A.** The viability, T/C was 111%.

**Q.** What about the viability, T/C [9] of the same compound?
**A.** The viability, T/C was 108%.

**Q.** And the viability, T/C [10]?
**A.** Its viability, T/C is 123%.

**Q.** And the viability, T/C [11]?
**A.** The viability, T/C was 123%.

**Q.** And the viability, T/C [12]?
**A.** The viability, T/C was 116%.

**Q.** What about the viability, T/C [13] of the same compound?
**A.** Its viability, T/C is 111%.

**Q.** And the viability, T/C [14]?
**A.** The viability, T/C was 123%.

**Q.** What about the viability, T/C [15] of the same compound?
**A.** Its viability, T/C is 111%.

**Q.** And the viability, T/C [16]?
**A.** The viability, T/C was 114%.

**Q.** What about the viability, T/C [17] of the same compound?
**A.** Its viability, T/C is 128%.

**Q.** And the viability, T/C [18]?
**A.** Its viability, T/C is 114%.

**Q.** And the viability, T/C [19]?
**A.** Its viability, T/C is 119%.

**Q.** What about the viability, T/C [20] of the same compound?
**A.** The viability, T/C was 120%.

**Q.** What about the viability, T/C [21] of the same compound?
**A.** The viability, T/C was 114%.

**Q.** And the viability, T/C [22]?
**A.** Its viability, T/C is 119%.

**Q.** What about the viability, T/C [23] of the same compound?
**A.** The viability, T/C was 121%.

**Q.** And the viability, T/C [24]?
**A.** The viability, T/C was 129%.

**Q.** What about the viability, T/C [25] of the same compound?
**A.** Its viability, T/C is 116%.

**Q.** And the viability, T/C [26]?
**A.** The viability, T/C was 108%.

**Q.** And the viability, T/C [27]?
**A.** The viability, T/C was 108%.

**Q.** And the viability, T/C [28]?
**A.** Its viability, T/C is 113%.

**Q.** And the viability, T/C [29]?
**A.** The viability, T/C was 121%.

**Q.** What about the viability, T/C [30] of the same compound?
**A.** The viability, T/C was 128%.

**Q.** What about the viability, T/C [31] of the same compound?
**A.** Its viability, T/C is 109%.

**Q.** What about the viability, T/C [32] of the same compound?
**A.** Its viability, T/C is 111%.

**Q.** What about the viability, T/C [33] of the same compound?
**A.** Its viability, T/C is 106%.

**Q.** What about the viability, T/C [34] of the same compound?
**A.** The viability, T/C was 103%.

**Q.** What about the viability, T/C [35] of the same compound?
**A.** Its viability, T/C is 122%.

**Q.** And the viability, T/C [36]?
**A.** The viability, T/C was 111%.

**Q.** What does the source list for CC1COCCN1c1cc(C2(S(C)(=N)=O)CC2)nc(-c2ccnc3[nH]ccc23)n1 (centres undefined) + COC1C(OC(N)=O)C(O)C(Oc2ccc3c(O)c(NC(=O)c4ccc(O)c(CC=C(C)C)c4)c(=O)oc3c2C)OC1(C)C?
**A.** IC50 (second compound 0.0316 µM): 2450 nM; IC50 (second compound 0.1 µM): 2390 nM; IC50 (second compound 0.316 µM): 2650 nM; IC50 (second compound 1 µM): 2710 nM; IC50 (second compound 3.16 µM): 2590 nM; IC50 (second compound 10 µM): 2300 nM; viability, T/C [1]: 110%; viability, T/C [2]: 118%; viability, T/C [3]: 122%; viability, T/C [4]: 97.5%; viability, T/C [5]: 36.7%; viability, T/C [6]: 12%; viability, T/C [7]: 100%; viability, T/C [8]: 99.2%; viability, T/C [9]: 118%; viability, T/C [10]: 111%; viability, T/C [11]: 31.6%; viability, T/C [12]: 12.8%; viability, T/C [13]: 110%; viability, T/C [14]: 103%; viability, T/C [15]: 117%; viability, T/C [16]: 111%; viability, T/C [17]: 39%; viability, T/C [18]: 11.1%; viability, T/C [19]: 113%; viability, T/C [20]: 112%; viability, T/C [21]: 126%; viability, T/C [22]: 118%; viability, T/C [23]: 39.5%; viability, T/C [24]: 10.5%; viability, T/C [25]: 125%; viability, T/C [26]: 106%; viability, T/C [27]: 116%; viability, T/C [28]: 112%; viability, T/C [29]: 37.1%; viability, T/C [30]: 12.3%; viability, T/C [31]: 114%; viability, T/C [32]: 103%; viability, T/C [33]: 111%; viability, T/C [34]: 99.9%; viability, T/C [35]: 30.8%; viability, T/C [36]: 10.7%
